Measured values as given in patent US20250161287A1, “METHODS, COMPOSITIONS, AND COMBINATIONS FOR PREVENTING OR TREATING CANCER RECURRENCE” (VUJA DE SCIENCES, INC., priority 2022, published 2025).
Values joined by “and” are separate entries in the source; they are usually repeats but may differ in a detail not shown here. Identical values can stand only once. “Also recorded” adds a separate entry of the source. Like-named read-outs stand apart in the source and are kept apart here.

Key:
[1] = tested on: MG63.3 OS cell line; test: in vitro 3D BME assay with MG63.3 OS cell line; type: cell-based, human; settings: for minimal effective concentration: read-out: lowest dose leading to appreciable inhibition of 3D growth; for activity on 3D BME compared with 2D: MG63.3, 3D BME vs 2D MTT 72 h; for 3D activity and selectivity for ME in a screen of 10 HDAC inhibitors: selectivity = ratio of 3D to 2D % inhibition at the same dose, Class I, Class II, pan-HDAC; for 3D growth inhibition and selectivity for ME at selected dose: givinostat 400 nM, quisinostat 10 nM, MG63.3 3D BME
Description: 3D basement membrane extract (BME) assay was developed at the NCI Barkan (D. Barkan et al. 2008; Dalit Barkan and Green 2011; Hen and Barkan 2020). BME is purified from Engelbreth-Holm-Swarm (EHS) tumor, primarily made up of laminin, collagen IV, entactin, and heparin sulfate proteoglycans (Cultrex Reduced Growth Factor Basement Membrane Extract, PathClear n.d.), which allows it to more accurately reflect the 3D extracellular environment in the body.
Initially >150 selected therapeutic agents were tested on BME based on the likelihood for either a positive effect or a […] negative effect (as negative controls). […] These therapeutic agents were also tested in dose response (as broad as 1 pM-100 μM) for 2D cytotoxicity (MTT) and the IC50 was calculated. Where required, the hits from the initial screen were also further characterized at additional doses <100 nM in order to further determine the relative selectivity compared to the 2D IC50.
The influence of drug exposure on the metastatic phenotype was assessed in an in vitro assay of ME and escape from dormancy using a 3D BME assay as previously reported, which was adapted for use with OS cells.
Cultrex® PathClear, Reduced Growth Factor Basement Membrane Extract (BME—Bio-Techne, Minneapolis, MN) was added ([…]) to a 96-well plate and allowed to gel by incubating at 37° C. for ≥30 min. Cells were harvested, washed with DMEM (no glucose, no FBS, Gibco, Grand Island, NY) and centrifuged at 1500 g×5 mins. The media was aspirated and the remaining cell pellet flicked for about 10 s to ensure disaggregation.
Cells were diluted in assay media containing 2% BME, resuspended vigorously and 150 μL of the cell suspension was added on top of the gelled 3D BME layer. […] Cell numbers were determined in control vehicle (cells in media+0.1% DMSO), or treated wells and were measured on the indicated days by addition of 20 μL/well of MTS reagent (Cell Titer 96 Aqueous One, Promega, Madison, WI), followed by incubation at 37° C. for 2 h and absorbance measurements at 490 nm via plate reader (Molecular Devices, San Jose CA).
All conditions were conducted in quadruplicate and each experiment was carried out at least 3 separate times. All comparisons were made between treatment and vehicle control at concordant time points. Statistical analyses and non-linear regressions were derived using GraphPad Prism statistical software.

[2] = tested on: MG63.3 OS cell line; test: 2D growth / cytotoxicity by MTT, MG63.3; settings: for doses exhibiting cytotoxicity on 2D growth: 72 h
Procedure: The number of viable cells present in 2D culture was determined by MTT as previously reported. Briefly, cells were plated in 96-well plates at 2,000 cells/well and incubated at 37° C. for 24 h. After 24 h, the media was replaced with fresh media containing drugs at the desired concentrations (10 pM-10 μM) and incubated at 37° C. for 72 h. After 72 h, MTT reagent (20 L/well of a 5 mg/mL stock solution in sterile water; Sigma, St. Louis, MO) was added to each well and the plate was incubated at 37° C. for 2 h. DMSO ([…]) was then added to each well to solubilize the formazan crystals.
The resulting absorbance was measured at 490 nm via plate reader (Molecular Devices, San Jose, CA). DMSO (0.1%) was used as vehicle control, while 20 μM rapamycin was used as a positive cell-kill control. The experimental conditions were conducted in triplicate and each experiment was repeated three times. Regression lines and IC50's were calculated using a four-parameter variable slope nonlinear fit in GraphPad Prism.

[3] = Homo sapiens, MG-63.3, MG63.3 on 3D BME, vs vehicle control, replicates=4
[4] = MG63.3 on 3D BME, vs vehicle control, replicates=4

| Structure (SMILES) | minimal effective concentration [1, 3] | activity on 3D BME compared with 2D [1] | doses exhibiting cytotoxicity on 2D growth ([2]; human) | also measured |
| --- | --- | --- | --- | --- |
| CCN(CC)Cc1ccc2cc(COC(=O)Nc3ccc(C(=O)NO)cc3)ccc2c1 [givinostat] | 0.3 µM | more active in 3D than in 2D | ≥ 600 nM | 3D activity and selectivity for ME in a screen of 10 HDAC inhibitors ([1]; MG63.3): highest 3D activity and selectivity for ME; 3D growth inhibition and selectivity for ME at selected dose [1]: significant 3D growth inhibition and selectivity for ME |
| O=C(CC1NCCCC1O)Cn1cnc2cc(Br)c(Cl)cc2c1=O (stereo not drawn) [halofuginone] | – | – | ≥ 12.5 nM | lowest dose leading to >25% inhibition of 3D growth [1, 4]: 3 nM |
| CC(C)[C@]12O[C@H]1[C@@H]1O[C@]13[C@]1(O[C@H]1C[C@H]1C4=C(CC[C@@]13C)C(=O)OC4)[C@@H]2OCOP(=O)(O)O [minnelide] | – | – | – | lowest dose leading to complete inhibition of 3D growth [1, 4]: 4 nM; doses exhibiting cytotoxicity on 2D growth ([2]; MG63.3, MTT, replicates=3): ≥ 0.781 nM |
| CO[C@@]12[C@H](COC(N)=O)C3=C(C(=O)C(C)=C(N)C3=O)N1C[C@@H]1N[C@@H]12 [mitomycin C] | – | much stronger activity on 3D BME at significantly lower doses; also recorded: more active in 3D than in 2D | – | IC50 ([1]; MG63.3): 50 nM; minimal effective concentration [1, 4]: 0.0125 µM; IC50 ([2]; read-out: 2D IC50, MG63.3, MTT 72 h): 1000 nM and ~1000 nM |
| CC1(C)CCC(c2ccc(Cl)cc2)=C(CN2CCN(c3ccc(C(=O)NS(=O)(=O)c4ccc(N[C@H](CCN5CCOCC5)CSc5ccccc5)c(S(=O)(=O)C(F)(F)F)c4)cc3)CC2)C1 [navitoclax] | 0.5 µM | much stronger activity on 3D BME at similar doses; also recorded: more active in 3D than in 2D | ≥ 1000 nM | growth inhibition in the 3D BME assay ([1]; navitoclax 500-2000 nM, MG63.3): 50-60%; inhibition in 2D ([2]; navitoclax 500-2000 nM, MG63.3): 0-25% |
| Cc1[nH]c2ccccc2c1CCNCc1ccc(/C=C/C(=O)NO)cc1 [panobinostat] | 0.04 µM | – | ≥ 80 nM | – |
| NS(=O)(=O)OC[C@@H]1C[C@@H](n2ccc3c(N[C@H]4CCc5ccccc54)ncnc32)C[C@@H]1O [pevonedistat] | – | much stronger activity on 3D BME at significantly lower doses; also recorded: more active in 3D than in 2D | > 10 nM | inhibition at 0.025 µM ([1]; Homo sapiens, MG-63.3, pevonedistat 25 nM, MG63.3): 47%; inhibition at 0.025 µM ([2]; Homo sapiens, MG-63.3, read-out: inhibition in 2D): 20% |
| O=C(NC[C@H](O)CO)c1ccncc1Nc1ccc(I)cc1F [pimasertib] | – | – | above 1 nM | lowest dose leading to complete inhibition of 3D growth [1, 4]: 100 nM |
| Cn1cc(CNCC2CCN(c3ncc(C(=O)NO)cn3)CC2)c2ccccc21 [quisinostat] | 0.01 µM | more active in 3D than in 2D | ≥ 80 nM | 3D activity and selectivity for ME in a screen of 10 HDAC inhibitors ([1]; MG63.3): highest 3D activity and selectivity for ME; 3D growth inhibition and selectivity for ME at selected dose [1]: significant 3D growth inhibition and selectivity for ME |
| C=CCNc1c(O)cc2c(O)c1C[C@@H](C)C[C@H](OC)[C@H](O)[C@@H](C)/C=C(\C)[C@H](OC(N)=O)[C@@H](OC)/C=C\C=C(/C)C(=O)N2 [retaspimycin] | 0.2 µM | – | – | doses exhibiting cytotoxicity on 2D growth ([2]; MG63.3, MTT, replicates=3): > 400 nM |
